Target: T1, human FXR (Homo sapiens, UniProt Q96RI1)
T1 construct: expressed in transfected cells; host or cells: HEK293 cells stably carrying a 5xGal4-response-element firefly luciferase reporter, transiently transfected with pcDNA3.1-Gal4-FXR
T1 sequence (Q96RI1 262-486 limits assumed): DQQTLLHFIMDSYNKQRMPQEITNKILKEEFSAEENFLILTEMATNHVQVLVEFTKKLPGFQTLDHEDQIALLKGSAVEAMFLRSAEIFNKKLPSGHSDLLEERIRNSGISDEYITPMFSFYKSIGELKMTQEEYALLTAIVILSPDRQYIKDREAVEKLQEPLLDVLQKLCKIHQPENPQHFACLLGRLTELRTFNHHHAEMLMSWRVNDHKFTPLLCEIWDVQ
Test: transient human FXR/Gal4-luciferase reporter assay
Assay type: cell-based
Conditions: Gal4-hFXR transfected HEK293 reporter cells; relative to 8 μM GW-4064
Procedure, shortened: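 HEK293 cells stably carrying a 5×Gal4-response-element firefly luciferase reporter, transiently transfected overnight with a CMV-driven Gal4 DNA-binding domain/human FXR ligand-binding domain fusion.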

SMILES	EC50 [nM]
COc1cc(C(=O)O)nc2ccc(N3CCC4(C=C(c5c(-c6ccncc6Cl)noc5C5CC5)C4)CC3)cc12 [Example 109, 6-(2-(3-(3-Chloropyridin-4-yl)-5-cyclopropylisoxazol-4-yl)-7-azaspiro[3.5]non-1-en-7-yl)-4-methoxyquinoline-2-carboxylic acid]	140
CCOc1cc(C(=O)O)nc2ccc(N3CCC4(C=C(c5c(-c6ccccc6OC(F)(F)F)noc5C5CC5)C4)CC3)cc12 [Example 113, 6-(2-(5-Cyclopropyl-3-(2-(trifluoromethoxy)phenyl)isoxazol-4-yl)-7-azaspiro[3.5]non-1-en-7-yl)-4-ethoxyquinoline-2-carboxylic acid]	116
O=C(O)c1ccc2nc(N3CCC4(C=C(c5c(-c6c(Cl)cccc6Cl)noc5C5CC5)C4)CC3)oc2c1 [Example 114, 2-(2-(5-Cyclopropyl-3-(2,6-dichlorophenyl)isoxazol-4-yl)-7-azaspiro[3.5]non-1-en-7-yl)benzo[d]oxazole-6-carboxylic acid]	127
Cc1cc(N2CCC3(C=C(c4c(-c5c(Cl)cccc5Cl)noc4C4CC4)C3)CC2)ncc1C(=O)O [Example 115, 6-(2-(5-Cyclopropyl-3-(2,6-dichlorophenyl)isoxazol-4-yl)-7-azaspiro[3.5]non-1-en-7-yl)-4-methylnicotinic acid]	132
O=C(O)c1cnc(N2CCC3(C=C(c4c(-c5c(Cl)cccc5Cl)noc4C4CC4)C3)CC2)cc1C(F)(F)F [Example 116, 6-(2-(5-Cyclopropyl-3-(2,6-dichlorophenyl)isoxazol-4-yl)-7-azaspiro[3.5]non-1-en-7-yl)-4-(trifluoromethyl)nicotinic acid]	135
Cn1cc(C(=O)O)c2cnc(N3CCC4(C=C(c5c(-c6c(Cl)cccc6Cl)noc5C5CC5)C4)CC3)cc21 [Example 117, 6-(2-(5-Cyclopropyl-3-(2,6-dichlorophenyl)isoxazol-4-yl)-7-azaspiro[3.5]non-1-en-7-yl)-1-methyl-1H-pyrrolo[3,2-c]pyridine-3-carboxylic acid]	139
O=C(O)c1cnc(N2CCC3(C=C(c4c(-c5c(Cl)cccc5Cl)noc4C4CC4)C3)CC2)nc1 [Example 118, 2-(2-(5-Cyclopropyl-3-(2,6-dichlorophenyl)isoxazol-4-yl)-7-azaspiro[3.5]non-1-en-7-yl)pyrimidine-5-carboxylic acid]	171
O=C(O)c1cnc(N2CCC3(C=C(c4c(-c5c(Cl)cccc5Cl)noc4C4CC4)C3)CC2)nc1C(F)(F)F [Example 119, 2-(2-(5-Cyclopropyl-3-(2,6-dichlorophenyl)isoxazol-4-yl)-7-azaspiro[3.5]non-1-en-7-yl)-4-(trifluoromethyl)pyrimidine-5-carboxylic acid]	316
Cc1cc(C(=O)O)nc(N2CCC3(C=C(c4c(-c5c(Cl)cccc5Cl)noc4C4CC4)C3)CC2)n1 [Example 120, 2-(2-(5-Cyclopropyl-3-(2,6-dichlorophenyl)isoxazol-4-yl)-7-azaspiro[3.5]non-1-en-7-yl)-6-methylpyrimidine-4-carboxylic acid]	1390
Cc1cc(C(=O)O)cnc1N1CCC2(C=C(c3c(-c4c(Cl)cccc4Cl)noc3C3CC3)C2)CC1 [Example 121, 6-(2-(5-Cyclopropyl-3-(2,6-dichlorophenyl)isoxazol-4-yl)-7-azaspiro[3.5]non-1-en-7-yl)-5-methylnicotinic acid]	2590
Cc1nc(C(=O)O)c2ccc(N3CCC4(C=C(c5c(-c6c(Cl)cccc6Cl)noc5C5CC5)C4)CC3)cn12 [Example 127, 6-(2-(5-Cyclopropyl-3-(2,6-dichlorophenyl)isoxazol-4-yl)-7-azaspiro[3.5]non-1-en-7-yl)-3-methylimidazo[1,5-a]pyridine-1-carboxylic acid]	267
Cn1c(C(=O)O)cc2ccc(N3CCC4(C=C(c5c(-c6c(Cl)cccc6Cl)noc5C5CC5)C4)CC3)cc21 [Example 128, 6-(2-(5-Cyclopropyl-3-(2,6-dichlorophenyl)isoxazol-4-yl)-7-azaspiro[3.5]non-1-en-7-yl)-1-methyl-1H-indole-2-carboxylic acid]	287
O=C(O)c1cc2ccc(N3CCC4(C=C(c5c(-c6c(Cl)cccc6Cl)noc5C5CC5)C4)CC3)cc2cn1 [Example 129, 7-(2-(5-Cyclopropyl-3-(2,6-dichlorophenyl)isoxazol-4-yl)-7-azaspiro[3.5]non-1-en-7-yl)isoquinoline-3-carboxylic acid]	341
O=C(O)COc1cnc2ccc(N3CCC4(C=C(c5c(-c6c(Cl)cccc6Cl)noc5C5CC5)C4)CC3)cc2n1 [Example 130, 2-((7-(2-(5-Cyclopropyl-3-(2,6-dichlorophenyl)isoxazol-4-yl)-7-azaspiro[3.5]non-1-en-7-yl)quinoxalin-2-yl)oxy)acetic acid]	373
C[Si](C)(C)CCOCn1cc(C(=O)O)c2ccc(N3CCC4(C=C(c5c(-c6c(Cl)cccc6Cl)noc5C5CC5)C4)CC3)cc21 [Example 131, 6-(2-(5-Cyclopropyl-3-(2,6-dichlorophenyl)isoxazol-4-yl)-7-azaspiro[3.5]non-1-en-7-yl)-1-((2-(trimethylsilyl)ethoxy)methyl)-1H-indole-3-carboxylic acid]	445
Cc1c(N2CCC3(C=C(c4c(-c5c(Cl)cccc5Cl)noc4C4CC4)C3)CC2)ccc2cc(C(=O)O)cnc12 [Example 132, 7-(2-(5-Cyclopropyl-3-(2,6-dichlorophenyl)isoxazol-4-yl)-7-azaspiro[3.5]non-1-en-7-yl)-8-methylquinoline-3-carboxylic acid]	958
Cn1nc(N2CCC3(C=C(c4c(-c5c(Cl)cccc5Cl)noc4C4CC4)C3)CC2)c2ccc(C(=O)O)cc21 [Example 133, 3-(2-(5-Cyclopropyl-3-(2,6-dichlorophenyl)isoxazol-4-yl)-7-azaspiro[3.5]non-1-en-7-yl)-1-methyl-1H-indazole-6-carboxylic acid]	1170
Cn1nc(N2CCC3(C=C(c4c(-c5ccccc5C(F)(F)F)noc4C4CC4)C3)CC2)c2ccc(C(=O)O)cc21 [Example 134, 3-(2-(5-Cyclopropyl-3-(2-(trifluoromethyl)phenyl)isoxazol-4-yl)-7-azaspiro[3.5]non-1-en-7-yl)-1-methyl-1H-indazole-6-carboxylic acid]	3310

The next molecules have a lower EC50 than those just listed; values first:

EC50 [nM]	SMILES
102	O=C(O)c1nc(C(F)(F)F)n2cc(N3CCC4(C=C(c5c(-c6c(Cl)cccc6Cl)noc5C5CC5)C4)CC3)ccc12 [Example 126, 6-(2-(5-Cyclopropyl-3-(2,6-dichlorophenyl)isoxazol-4-yl)-7-azaspiro[3.5]non-1-en-7-yl)-3-(trifluoromethyl)imidazo[1,5-a]pyridine-1-carboxylic acid]
96	Cn1nc(C(=O)O)c2ccc(N3CCC4(C=C(c5c(-c6c(Cl)cccc6Cl)noc5C5CC5)C4)CC3)cc21 [Example 125, 6-(2-(5-Cyclopropyl-3-(2,6-dichlorophenyl)isoxazol-4-yl)-7-azaspiro[3.5]non-1-en-7-yl)-1-methyl-1H-indazole-3-carboxylic acid]
87	O=C(O)c1ccn2nc(N3CCC4(C=C(c5c(-c6ccccc6C(F)(F)F)noc5C5CC5)C4)CC3)ncc12 [Example 135, 2-(2-(5-Cyclopropyl-3-(2-(trifluoromethyl)phenyl)isoxazol-4-yl)-7-azaspiro[3.5]non-1-en-7-yl)pyrrolo[2,1-f][1,2,4]triazine-5-carboxylic acid]
78	Cc1nc(N2CCC3(C=C(c4c(-c5c(Cl)cccc5Cl)noc4C4CC4)C3)CC2)ccc1C(=O)O [Example 124, 6-(2-(5-Cyclopropyl-3-(2,6-dichlorophenyl)isoxazol-4-yl)-7-azaspiro[3.5]non-1-en-7-yl)-2-methylnicotinic acid]
54	COc1cc(C(=O)O)nc2ccc(N3CCC4(C=C(c5c(-c6c(Cl)cc(F)cc6Cl)noc5C5CC5)C4)CC3)cc12 [Example 112, 6-(2-(5-Cyclopropyl-3-(2,6-dichloro-4-fluorophenyl)isoxazol-4-yl)-7-azaspiro[3.5]non-1-en-7-yl)-4-methoxyquinoline-2-carboxylic acid]
47	CC(C)Oc1cc(C(=O)O)nc2ccc(N3CCC4(C=C(c5c(-c6c(Cl)cncc6Cl)noc5C5CC5)C4)CC3)cc12 [Example 111, 6-(2-(5-Cyclopropyl-3-(3,5-dichloropyridin-4-yl)isoxazol-4-yl)-7-azaspiro[3.5]non-1-en-7-yl)-4-isopropoxyquinoline-2-carboxylic acid]
40	O=C(O)c1ccc2nc(N3CCC4(C=C(c5c(-c6c(Cl)cccc6Cl)noc5C5CC5)C4)CC3)ccc2c1 [Example 122, 2-(2-(5-Cyclopropyl-3-(2,6-dichlorophenyl)isoxazol-4-yl)-7-azaspiro[3.5]non-1-en-7-yl)quinoline-6-carboxylic acid]
40	O=C(O)c1ccn2nc(N3CCC4(C=C(c5c(-c6c(Cl)cccc6Cl)noc5C5CC5)C4)CC3)ncc12 [Example 123, 2-(2-(5-Cyclopropyl-3-(2,6-dichlorophenyl)isoxazol-4-yl)-7-azaspiro[3.5]non-1-en-7-yl)pyrrolo[2,1-f][1,2,4]triazine-5-carboxylic acid]
37	CC(C)Oc1cc(C(=O)O)nc2ccc(N3CCC4(C=C(c5c(-c6c(Cl)cc(F)cc6Cl)noc5C5CC5)C4)CC3)cc12 [Example 110, 6-(2-(5-Cyclopropyl-3-(2,6-dichloro-4-fluorophenyl)isoxazol-4-yl)-7-azaspiro[3.5]non-1-en-7-yl)-4-isopropoxyquinoline-2-carboxylic acid]
31	CCOc1cc(C(=O)O)nc2ccc(N3CCC4(C=C(c5c(-c6c(Cl)cncc6Cl)noc5C5CC5)C4)CC3)cc12 [Example 107, 6-(2-(5-Cyclopropyl-3-(3,5-dichloropyridin-4-yl)isoxazol-4-yl)-7-azaspiro[3.5]non-1-en-7-yl)-4-ethoxyquinoline-2-carboxylic acid]

Reference: patent publication US11078198B2 (BRISTOL-MYERS SQUIBB COMPANY, priority 2017, dated 2021)
